Results: patent US20240208992A1, “MACROCYCLES AS CFTR MODULATORS” (Idorsia Pharmaceuticals Ltd, priority 2021, published 2024)

Molecular target: human F508del-CFTR (Homo sapiens, UniProt P13569, DEL508-508)
Assay: F508del-CFTR cell surface expression (corrector activity), DiscoveRx ß-galactosidase complementation chemiluminescence assay in recombinant U2OS cell line;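 also: U2OS cells co-expressing ProLink-tagged F508del-CFTR and a membrane-anchored enzyme acceptor, where more surface CFTR restores β-galactosidase activity measured by chemiluminescence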
Details: for EC50: EC50, F508del-CFTR cell surface expression; for Emax: U2OS
[1] = U2OS cells, 16h compound incubation, geomean values
[2] = in relation to Emax of corrector lumacaftor (=100%), arithmetic mean values
[3] = U2OS cell line, 16h compound incubation, geomean values
[4] = in relation to the Emax of the corrector lumacaftor (=100%), U2OS cell line, 16h compound incubation, arithmetic mean values
[5] = U2OS cells, 16h compound incubation, geomean of several measurements
[6] = in relation to the Emax of the corrector lumacaftor (=100%), U2OS cells, 16h compound incubation, arithmetic mean

Chain of human F508del-CFTR (P13569 with tags, fused parts or gaps DEL508-508): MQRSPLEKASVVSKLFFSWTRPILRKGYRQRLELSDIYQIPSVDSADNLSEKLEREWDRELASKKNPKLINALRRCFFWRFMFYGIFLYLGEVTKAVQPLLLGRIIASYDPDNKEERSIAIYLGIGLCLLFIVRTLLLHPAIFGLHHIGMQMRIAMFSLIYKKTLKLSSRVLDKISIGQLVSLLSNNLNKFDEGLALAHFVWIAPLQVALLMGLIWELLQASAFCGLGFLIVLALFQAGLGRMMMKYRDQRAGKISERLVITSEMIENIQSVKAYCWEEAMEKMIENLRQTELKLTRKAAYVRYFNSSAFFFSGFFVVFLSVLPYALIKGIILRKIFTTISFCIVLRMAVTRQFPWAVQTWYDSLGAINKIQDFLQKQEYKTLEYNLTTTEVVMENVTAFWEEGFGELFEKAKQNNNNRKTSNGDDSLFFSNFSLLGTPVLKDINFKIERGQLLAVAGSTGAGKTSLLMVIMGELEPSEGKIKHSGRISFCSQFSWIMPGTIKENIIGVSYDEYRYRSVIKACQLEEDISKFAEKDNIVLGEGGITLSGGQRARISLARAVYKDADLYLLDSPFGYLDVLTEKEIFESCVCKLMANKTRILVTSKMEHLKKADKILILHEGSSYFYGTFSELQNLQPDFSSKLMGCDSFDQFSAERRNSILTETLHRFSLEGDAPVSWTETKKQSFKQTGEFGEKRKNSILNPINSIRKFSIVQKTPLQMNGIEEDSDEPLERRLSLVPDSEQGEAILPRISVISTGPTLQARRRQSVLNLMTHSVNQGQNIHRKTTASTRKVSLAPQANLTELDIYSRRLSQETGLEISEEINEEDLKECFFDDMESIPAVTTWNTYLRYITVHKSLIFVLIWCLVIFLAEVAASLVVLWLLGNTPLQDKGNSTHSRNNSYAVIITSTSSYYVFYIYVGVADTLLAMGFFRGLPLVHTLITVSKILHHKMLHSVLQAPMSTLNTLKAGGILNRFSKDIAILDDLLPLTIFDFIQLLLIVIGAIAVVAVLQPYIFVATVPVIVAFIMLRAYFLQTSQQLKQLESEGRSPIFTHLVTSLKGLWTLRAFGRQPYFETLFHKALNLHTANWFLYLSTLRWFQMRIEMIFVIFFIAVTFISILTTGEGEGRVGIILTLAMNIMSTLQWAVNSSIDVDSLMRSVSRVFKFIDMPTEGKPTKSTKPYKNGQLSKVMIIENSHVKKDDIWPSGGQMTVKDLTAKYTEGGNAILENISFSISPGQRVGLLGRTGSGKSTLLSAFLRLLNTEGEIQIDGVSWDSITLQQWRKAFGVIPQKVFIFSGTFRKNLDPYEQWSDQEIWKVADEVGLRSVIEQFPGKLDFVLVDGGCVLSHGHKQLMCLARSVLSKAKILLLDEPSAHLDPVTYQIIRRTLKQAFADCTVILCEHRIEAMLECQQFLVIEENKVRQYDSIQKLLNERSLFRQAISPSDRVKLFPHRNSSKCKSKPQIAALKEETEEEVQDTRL

EC50 [1] [nM] | Emax [2] [%] | Compound | EC50 [3] [nM] | Emax [4] [%] | further results
529 | 295 | Cc1cc(CCNC(=O)[C@@H]2CC(=O)N(C)[C@@H](CC(C)C)C(=O)N3CCN(S(=O)(=O)c4ccc5c(c4)OCCN5C)C[C@@H]3C(=O)N[C@H](Cc3ccccc3)COc3cnc4ccccc4c3C(=O)N2)on1 [Example 748, (9S,13S,19aR,22R)-22-benzyl-13-isobutyl-12-methyl-18-((4-methyl-3,4-dihydro-2H-benzo[b][1,4]oxazin-7-yl)sulfonyl)-N-(2-(3-methylisoxazol-5-yl)ethyl)-7,11,14,20-tetraoxo-7,8,9,10,11,12,13,14,17,18,19,19a,20,21,22,23-hexadecahydro-16H-pyrazino[2′,11:6,7][1]oxa[4,7,10,14]tetraazacycloheptadecino[17,16-c]quinoline-9-carboxamide] |  |  | 
 |  | CC(C)C[C@H]1C(=O)N2CCOC[C@@H]2C(=O)N[C@H](Cc2ccccc2)COc2cnc3ccccc3c2C(=O)N[C@H](C(=O)NCCc2cccc(F)c2)CC(=O)N1C [Example 66, (9S,13S,19aR,22R)-22-benzyl-N-(3-fluorophenethyl)-13-isobutyl-12-methyl-7,11,14,20-tetraoxo-7,8,9,10,11,12,13,14,16,17,19,19a,20,21,22,23-hexadecahydro-[1,4]oxazino[3′,4′:6,7][1]oxa[4,7,10,14]tetraazacycloheptadecino[17,16-c]quinoline-9-carboxamide] | 587 | 169 | 
 |  | COc1cccc(CCNC(=O)[C@@H]2CC(=O)N(C)[C@@H](CC(C)C)C(=O)N(C[C@H]3CCCCO3)CC(=O)N[C@H](Cc3ccccc3)COc3ccc4ccccc4c3C(=O)N2)c1 (racemic) [Example 164, (3RS,7S,13R)-13-benzyl-7-isobutyl-N-(3-methoxyphenethyl)-6-methyl-1,5,8,11-tetraoxo-9-(((R)-tetrahydro-2H-pyran-2-yl)methyl)-1,2,3,4,5,6,7,8,9,10,11,12,13,14-tetradecahydronaphtho[1,2-p][1]oxa[4,7,10,14]tetraazacycloheptadecine-3-carboxamide] |  | 167 | 
355 | 296 | COc1nccc2c1C(=O)N[C@H](C(=O)NCCc1cc(C)no1)CC(=O)N(C)[C@@H](CC(C)C)C(=O)N1Cc3ccccc3C[C@@H]1C(=O)N[C@H](Cc1ccccc1)CO2 [Example 678, (7S,11S,19aR,22R)-22-benzyl-11-isobutyl-4-methoxy-10-methyl-N-(2-(3-methylisoxazol-5-yl)ethyl)-5,9,12,20-tetraoxo-5,6,7,8,9,10,11,12,19,19a,20,21,22,23-tetradecahydro-14H-pyrido[3′,4′:16,17][1]oxa[4,7,10,14]tetraazacycloheptadecino[7,6-b]isoquinoline-7-carboxamide] |  |  | 
 |  | CC(C)C[C@H]1C(=O)N(C)[C@H](Cc2nc(-c3ccc(F)cn3)no2)C(=O)N[C@H](Cc2ccccc2)COc2cnc3ccc(F)cc3c2C(=O)N[C@H](C(=O)NC[C@@H](O)c2ccccc2)CC(=O)N1C [Example 842, (3S,7S,10R,13R)-13-benzyl-20-fluoro-10-((3-(5-fluoropyridin-2-yl)-1,2,4-oxadiazol-5-yl)methyl)-N-((S)-2-hydroxy-2-phenylethyl)-7-isobutyl-6,9-dimethyl-1,5,8,11-tetraoxo-1,2,3,4,5,6,7,8,9,10,11,12,13,14-tetradecahydro-[1]oxa[4,7,10,14]tetraazacycloheptadecino[17,16-c]quinoline-3-carboxamide] |  |  | EC50 [5]: 495 nM; Emax [6]: 305%
156 | 337 | COc1cc(CCNC(=O)[C@@H]2CC(=O)N(C)[C@@H](CC(C)C)C(=O)N(C)[C@H](C)C(=O)N[C@H](Cc3ccccc3)COc3ccc4ncc(F)cc4c3C(=O)N2)on1 [Example 786, (3S,7S,10R,13R)-13-benzyl-20-fluoro-7-isobutyl-N-(2-(3-methoxyisoxazol-5-yl)ethyl)-6,9,10-trimethyl-1,5,8,11-tetraoxo-1,2,3,4,5,6,7,8,9,10,11,12,13,14-tetradecahydro-[1]oxa[4,7,10,14]tetraazacycloheptadecino[16,17-f]quinoline-3-carboxamide] |  |  | 
 |  | COc1nccc2c1C(=O)N[C@H](C(=O)NCCc1noc(C3CC3)n1)CC(=O)N(C)[C@@H](CC(C)C)C(=O)N(C)[C@H](Cn1cc(-c3ccccc3)nn1)C(=O)N[C@H](Cc1ccccc1)CO2 [Example 882, (3R,6R,9S,13S)-3-benzyl-N-(2-(5-cyclopropyl-1,2,4-oxadiazol-3-yl)ethyl)-9-isobutyl-16-methoxy-7,10-dimethyl-5,8,11,15-tetraoxo-6-((4-phenyl-1H-1,2,3-triazol-1-yl)methyl)-2,3,4,5,6,7,8,9,10,11,12,13,14,15-tetradecahydropyrido[3,4-p][1]oxa[4,7,10,14]tetraazacycloheptadecine-13-carboxamide] |  |  | EC50 [5]: 473 nM; Emax [6]: 367%
124 | 296 | CC(C)C[C@H]1C(=O)N2CCCC[C@@H]2C(=O)N[C@H](Cc2ccccc2)COc2ccc3ncc(F)cc3c2C(=O)N[C@H](C(=O)NCCc2cc(C3CC3)on2)CC(=O)N1C [Example 781, (9S,13S,19aR,22R)-22-benzyl-N-(2-(5-cyclopropylisoxazol-3-yl)ethyl)-5-fluoro-13-isobutyl-12-methyl-7,11,14,20-tetraoxo-7,8,9,10,11,12,13,14,17,18,19,19a,20,21,22,23-hexadecahydro-16H-pyrido[2′,1′:6,7][1]oxa[4,7,10,14]tetraazacycloheptadecino[16,17-f]quinoline-9-carboxamide] |  |  | 
 |  | Cc1cccc(CCNC(=O)[C@@H]2CC(=O)N(C)[C@@H](CC(C)C)C(=O)N(C)C3(CC3)C(=O)N[C@H](Cc3ccccc3)COc3cnc4ccccc4c3C(=O)N2)c1 [Example 112, (3′S,7′S,13′R)-13′-benzyl-7′-isobutyl-6′,9′-dimethyl-N-(3-methylphenethyl)-1′,5′,8′,11′-tetraoxo-2′,3′,4′,5′,6′,7′,8′,9′,11′,12′,13′,14′-dodecahydro-1′H-spiro[cyclopropane-1,10′-[1]oxa[4,7,10,14]tetraazacycloheptadecino[17,16-c]quinoline]-3′-carboxamide] | 817 | 200 | 
 |  | CC(C)C[C@H]1C(=O)N2CCCC[C@@H]2C(=O)N[C@H](Cc2ccccc2)COc2cnc3ccccc3c2C(=O)N[C@H](C(=O)NCCc2cnn(C3CC3)c2)CC(=O)N1C [Example 124, (9S,13S,19aR,22R)-22-benzyl-N-(2-(1-cyclopropyl-1H-pyrazol-4-yl)ethyl)-13-isobutyl-12-methyl-7,11,14,20-tetraoxo-7,8,9,10,11,12,13,14,17,18,19,19a,20,21,22,23-hexadecahydro-16H-pyrido[2′,1′:6,7][1]oxa[4,7,10,14]tetraazacycloheptadecino[17,16-c]quinoline-9-carboxamide] | 382 | 347 | 
 |  | COc1cccc2c1C(=O)N[C@H](C(=O)NCCc1ccc3c(c1)OCO3)CC(=O)N(C)[C@@H](CC(C)C)C(=O)N(C[C@H]1CCCCO1)CC(=O)N[C@H](Cc1ccccc1)CO2 [Example 305, (3R,9S,13S)-N-(2-(benzo[d][1,3]dioxol-5-yl)ethyl)-3-benzyl-9-isobutyl-16-methoxy-10-methyl-5,8,11,15-tetraoxo-7-(((R)-tetrahydro-2H-pyran-2-yl)methyl)-2,3,4,5,6,7,8,9,10,11,12,13,14,15-tetradecahydrobenzo[p][1]oxa[4,7,10,14]tetraazacycloheptadecine-13-carboxamide] | 533 | 123 | 
 |  | CN1C(=O)C[C@@H](C(=O)NCCc2ccc3c(c2)OCO3)NC(=O)c2c(ccc3ccccc23)OC[C@@H](Cc2ccccc2)NC(=O)CN(CCC2CCCCC2)C(=O)[C@@H]1CC1CCCC1 (mixture of isomers) [Example 290, (3RS,7S,13R)-N-(2-(benzo[d][1,3]dioxol-5-yl)ethyl)-13-benzyl-9-(2-cyclohexylethyl)-7-(cyclopentylmethyl)-6-methyl-1,5,8,11-tetraoxo-1,2,3,4,5,6,7,8,9,10,11,12,13,14-tetradecahydronaphtho[1,2-p][1]oxa[4,7,10,14]tetraazacycloheptadecine-3-carboxamide] | 188 |  | 

Compound | EC50 [1] [nM] | Emax [2] [%] | EC50 [3] [nM] | Emax [4] [%] | further results
COc1cccc(CCNC(=O)[C@@H]2CC(=O)N(C)[C@@H](CC(C)C)C(=O)N(C)[C@@H](COCc3ccccc3)C(=O)N[C@H](Cc3ccccc3)COc3ccc4ccccc4c3C(=O)N2)c1 [Example 715, (3S,7S,10S,13R)-13-benzyl-10-((benzyloxy)methyl)-7-isobutyl-N-(3-methoxyphenethyl)-6,9-dimethyl-1,5,8,11-tetraoxo-1,2,3,4,5,6,7,8,9,10,11,12,13,14-tetradecahydronaphtho[1,2-p][1]oxa[4,7,10,14]tetraazacycloheptadecine-3-carboxamide] | 64 | 283 |  |  | 
CC(C)C[C@H]1C(=O)N2CCCC[C@@H]2C(=O)N[C@H](Cc2ccccc2)COc2ccc3ncn(C)c3c2C(=O)N[C@H](C(=O)NCCc2c(F)cccc2F)CC(=O)N1C [Example 485, (8S,12S,18aR,21R)-21-benzyl-N-(2,6-difluorophenethyl)-12-isobutyl-5,11-dimethyl-6,10,13,19-tetraoxo-6,7,8,9,10,11,12,13,16,17,18,18a,19,20,21,22-hexadecahydro-5H,15H-imidazo[4′,5′:5,6]benzo[1,2-p]pyrido[2,1-f][1]oxa[4,7,10,14]tetraazacycloheptadecine-8-carboxamide] | 238 | 204 |  |  | 
